Tests used:
[1] = target: T1, WRN [UniPro: Q14191 (WRN_HUMAN), N500-C946] (Homo sapiens (Human), UniProt Q14191); assay: WRN ATPase assay (ADP-Glo); format: biochemical; settings: WRN enzymatic activity assay
[2] = target: T1, WRN [UniPro: Q14191 (WRN_HUMAN), N500-C946]; assay: WRN unwinding assay (FORKF DNA, fluorescence); format: biochemical; settings: Table 14

T1 sequence (Q14191 500-946): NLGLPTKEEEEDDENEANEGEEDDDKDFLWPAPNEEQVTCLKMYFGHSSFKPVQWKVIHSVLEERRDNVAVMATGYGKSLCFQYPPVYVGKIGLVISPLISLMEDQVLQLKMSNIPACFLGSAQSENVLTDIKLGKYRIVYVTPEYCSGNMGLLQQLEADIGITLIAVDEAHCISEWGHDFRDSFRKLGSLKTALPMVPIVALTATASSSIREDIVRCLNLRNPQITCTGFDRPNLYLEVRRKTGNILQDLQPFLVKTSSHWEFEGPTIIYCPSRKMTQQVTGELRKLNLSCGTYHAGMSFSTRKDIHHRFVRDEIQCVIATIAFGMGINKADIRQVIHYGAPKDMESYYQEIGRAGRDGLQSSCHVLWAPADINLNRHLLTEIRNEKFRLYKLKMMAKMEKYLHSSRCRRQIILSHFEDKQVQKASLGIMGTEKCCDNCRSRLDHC

Row | SMILES | IC50 [1] | IC50 [2]
1 | CCc1c(N2CCN(C(=O)c3sc4cnccc4c3O)CC2)c(=O)n2nc(C3=CCOCC3)nc2n1CC(=O)Nc1ccc(C(F)(F)F)cc1Cl [Example 74, N-(2-Chloro-4-(trifluoromethyl)phenyl)-2-(2-(3,6-dihydro-2H-pyran-4-yl)-5-ethyl-6-(4-(3-hydroxythieno[2,3-c]pyridine-2-carbonyl)piperazin-1-y1)-7-oxo-[1,2,4]triazolo[1,5-a]pyrimidin-4(7H)-yl)acetamide] | < 100 nM | < 100 nM
2 | CCc1c(N2CCN(C(=O)c3nc4cnccn4c3O)CC2)c(=O)n2nc(C3=CCOCC3)nc2n1CC(=O)Nc1ccc(C(F)(F)F)cc1Cl [Example 75, N-(2-Chloro-4-(trifluoromethyl)phenyl)-2-(2-(3,6-dihydro-2H-pyran-4-yl)-5-ethyl-6-(4-(3-hydroxyimidazo[1,2-a]pyrazine-2-carbonyl)piperazin-1-yl)-7-oxo-[1,2,4]triazolo[1,5-a]pyrimidin-4(7H)-yl)acetamide] | 100 to 1000 nM | < 100 nM
3 | CCc1c(N2CCN(C(=O)c3n[nH]cc(C)c3=O)CC2)c(=O)n2nc(C3=CCOCC3)nc2n1CC(=O)Nc1ccc(C(F)(F)F)cc1Cl [Example 76, N-(2-Chloro-4-(trifluoromethyl)phenyl)-2-(2-(3,6-dihydro-2H-pyran-4-yl)-5-ethyl-6-(4-(5-methyl-4-oxo-1,4-dihydropyridazine-3-carbonyl)piperazin-1-yl)-7-oxo-[1,2,4]triazolo[1,5-a]pyrimidin-4(7H)-yl)acetamide] | 100 to 1000 nM | < 100 nM
4 | CCc1c(N2CCN(C(=O)c3cnc4c(ccn4C)c3O)CC2)c(=O)n2nc(C3=CCOCC3)nc2n1CC(=O)Nc1ccc(C(F)(F)F)cc1Cl [Example 77, N-(2-Chloro-4-(trifluoromethyl)phenyl)-2-(2-(3,6-dihydro-2H-pyran-4-yl)-5-ethyl-6-(4-(4-hydroxy-1-methyl-1H-pyrrolo[2,3-b]pyridine-5-carbonyl)piperazin-1-yl)-7-oxo-[1,2,4]triazolo[1,5-a]pyrimidin-4(7H)-yl)acetamide] | < 100 nM | < 100 nM
5 | CCc1c(N2CCN(C(=O)c3cccc(=O)[nH]3)CC2)c(=O)n2nc(C3=CCOCC3)nc2n1CC(=O)Nc1ccc(C(F)(F)F)cc1Cl [Example 78, N-(2-Chloro-4-(trifluoromethyl)phenyl)-2-(2-(3,6-dihydro-2H-pyran-4-yl)-5-ethyl-7-oxo-6-(4-(6-oxo-1,6-dihydropyridine-2-carbonyl)piperazin-1-yl)-[1,2,4]triazolo[1,5-a]pyrimidin-4(7H)-yl)acetamide] | < 100 nM | < 100 nM
6 | CCc1c(N2CCN(C(=O)c3ccnc(=O)[nH]3)CC2)c(=O)n2nc(C3=CCOCC3)nc2n1CC(=O)Nc1ccc(C(F)(F)F)cc1Cl [Example 79, N-(2-Chloro-4-(trifluoromethyl)phenyl)-2-(2-(3,6-dihydro-2H-pyran-4-yl)-5-ethyl-7-oxo-6-(4-(2-oxo-2,3-dihydropyrimidine-4-carbonyl)piperazin-1-yl)-[1,2,4]triazolo[1,5-a]pyrimidin-4(7H)-yl)acetamide] | 100 to 1000 nM | < 100 nM
7 | CCc1c(N2CCN(C(=O)c3cc4ccn(C)c4cc3O)CC2)c(=O)n2nc(C3=CCOCC3)nc2n1CC(=O)Nc1ccc(C(F)(F)F)cc1Cl [Example 80, N-(2-Chloro-4-(trifluoromethyl)phenyl)-2-(2-(3,6-dihydro-2H-pyran-4-yl)-5-ethyl-6-(4-(6-hydroxy-1-methyl-1H-indole-5-carbonyl)piperazin-1-yl)-7-oxo-[1,2,4]triazolo[1,5-a]pyrimidin-4(7H)-yl)acetamide] | 100 to 1000 nM | < 100 nM
8 | CCc1c(N2CCN(C(=O)c3cnc4ncsc4c3O)CC2)c(=O)n2nc(C3=CCOCC3)nc2n1CC(=O)Nc1ccc(C(F)(F)F)cc1Cl [Example 81, N-(2-Chloro-4-(trifluoromethyl)phenyl)-2-(2-(3,6-dihydro-2H-pyran-4-yl)-5-ethyl-6-(4-(7-hydroxythiazolo[4,5-b]pyridine-6-carbonyl)piperazin-1-yl)-7-oxo-[1,2,4]triazolo[1,5-a]pyrimidin-4(7H)-yl)acetamide] | < 100 nM | < 100 nM
9 | CCc1c(N2CCN(C(=O)c3nnccc3O)CC2)c(=O)n2nc(C3=CCOCC3)nc2n1CC(=O)Nc1ccc(C(F)(F)F)cc1Cl [Example 82, N-(2-Chloro-4-(trifluoromethyl)phenyl)-2-(2-(3,6-dihydro-2H-pyran-4-yl)-5-ethyl-6-(4-(4-hydroxypyridazine-3-carbonyl)piperazin-1-yl)-7-oxo-[1,2,4]triazolo[1,5-a]pyrimidin-4(7H)-yl)acetamide] | < 100 nM | < 100 nM
10 | CCc1c(N2CCN(C(=O)c3nnc(Cl)cc3O)CC2)c(=O)n2nc(C3=CCOCC3)nc2n1CC(=O)Nc1ccc(C(F)(F)F)cc1Cl [Example 83, N-(2-Chloro-4-(trifluoromethyl)phenyl)-2-(6-(4-(6-chloro-4-hydroxypyridazine-3-carbonyl)piperazin-1-yl)-2-(3,6-dihydro-2H-pyran-4-yl)-5-ethyl-7-oxo-[1,2,4]triazolo[1,5-a]pyrimidin-4(7H)-yl)acetamide] | < 100 nM | < 100 nM
11 | CCc1c(N2CCN(C(=O)c3cnn4cccc4c3O)CC2)c(=O)n2nc(C3=CCOCC3)nc2n1CC(=O)Nc1ccc(C(F)(F)F)cc1Cl [Example 84, N-(2-Chloro-4-(trifluoromethyl)phenyl)-2-(2-(3,6-dihydro-2H-pyran-4-yl)-5-ethyl-6-(4-(4-hydroxypyrrolo[1,2-b]pyridazine-3-carbonyl)piperazin-1-yl)-7-oxo-[1,2,4]triazolo[1,5-a]pyrimidin-4(7H)-yl)acetamide] | < 100 nM | < 100 nM
12 | CCc1c(N2CCN(C(=O)c3nn4ccnc4cc3O)CC2)c(=O)n2nc(C3=CCOCC3)nc2n1CC(=O)Nc1ccc(C(F)(F)F)cc1Cl [Example 85, N-(2-Chloro-4-(trifluoromethyl)phenyl)-2-(2-(3,6-dihydro-2H-pyran-4-yl)-5-ethyl-6-(4-(7-hydroxyimidazo[1,2-b]pyridazine-6-carbonyl)piperazin-1-yl)-7-oxo-[1,2,4]triazolo[1,5-a]pyrimidin-4(7H)-yl)acetamide] | < 100 nM | < 100 nM
13 | CCc1c(N2CCN(C(=O)c3sc4ncccc4c3O)CC2)c(=O)n2nc(C3=CCOCC3)nc2n1CC(=O)Nc1ccc(C(F)(F)F)cc1Cl [Example 87, N-(2-Chloro-4-(trifluoromethyl)phenyl)-2-(2-(3,6-dihydro-2H-pyran-4-yl)-5-ethyl-6-(4-(3-hydroxythieno[2,3-b]pyridine-2-carbonyl)piperazin-1-yl)-7-oxo-[1,2,4]triazolo[1,5-a]pyrimidin-4(7H)-yl)acetamide] | < 100 nM | < 100 nM
14 | CCc1c(N2CCN(C(=O)c3cc4c(O)ccnc4o3)CC2)c(=O)n2nc(C3=CCOCC3)nc2n1CC(=O)Nc1ccc(C(F)(F)F)cc1Cl [Example 88, N-(2-Chloro-4-(trifluoromethyl)phenyl)-2-(2-(3,6-dihydro-2H-pyran-4-yl)-5-ethyl-6-(4-(4-hydroxyfuro[2,3-b]pyridine-2-carbonyl)piperazin-1-yl)-7-oxo-[1,2,4]triazolo[1,5-a]pyrimidin-4(7H)-yl)acetamide] | < 100 nM | < 100 nM
15 | CCc1c(N2CCN(C(=O)C(N)=O)CC2)c(=O)n2nc(C3=CCOCC3)nc2n1CC(=O)Nc1ccc(C(F)(F)F)cc1Cl [Example 89, 2-(6-(4-(2-Amino-2-oxoacetyl)piperazin-1-yl)-2-(3,6-dihydro-2H-pyran-4-yl)-5-ethyl-7-oxo-[1,2,4]triazolo[1,5-a]pyrimidin-4(7H)-yl)-N-(2-chloro-4-(trifluoromethyl)phenyl)acetamide] | < 100 nM | < 100 nM
16 | CCc1c(N2CCN(C(=O)c3cccc4cn[nH]c34)CC2)c(=O)n2nc(C3=CCOCC3)nc2n1CC(=O)Nc1ccc(C(F)(F)F)cc1Cl [Example 90, 2-(6-(4-(1H-Indazole-7-carbonyl)piperazin-1-yl)-2-(3,6-dihydro-2H-pyran-4-yl)-5-ethyl-7-oxo-[1,2,4]triazolo[1,5-a]pyrimidin-4(7H)-yl)-N-(2-chloro-4-(trifluoromethyl)phenyl)acetamide] | < 100 nM | 100 to 1000 nM
17 | CCc1c(N2CCN(C(=O)c3cnc4cc(C)cn4c3O)CC2)c(=O)n2nc(C3=CCOCC3)nc2n1CC(=O)Nc1ccc(C(F)(F)F)cc1Cl [Example 92, N-(2-Chloro-4-(trifluoromethyl)phenyl)-2-(2-(3,6-dihydro-2H-pyran-4-yl)-5-ethyl-6-(4-(4-hydroxy-7-methylpyrrolo[1,2-a]pyrimidine-3-carbonyl)piperazin-1-yl)-7-oxo-[1,2,4]triazolo[1,5-a]pyrimidin-4(7H)-yl)acetamide] | < 100 nM | < 100 nM
18 | CCc1c(N2CCN(C(=O)CNC(=O)c3ccccc3)CC2)c(=O)n2nc(C3=CCOCC3)nc2n1CC(=O)Nc1ccc(C(F)(F)F)cc1Cl [Example 93, N-(2-(4-(4-(2-((2-Chloro-4-(trifluoromethyl)phenyl)amino)-2-oxoethyl)-2-(3,6-dihydro-2H-pyran-4-yl)-5-ethyl-7-oxo-4,7-dihydro-[1,2,4]triazolo[1,5-a]pyrimidin-6-yl)piperazin-1-yl)-2-oxoethyl)benzamide] | < 100 nM | < 100 nM
19 | CCCC(=O)NCC(=O)N1CCN(c2c(CC)n(CC(=O)Nc3ccc(C(F)(F)F)cc3Cl)c3nc(C4=CCOCC4)nn3c2=O)CC1 [Example 94, N-(2-(4-(4-(2-((2-Chloro-4-(trifluoromethyl)phenyl)amino)-2-oxoethyl)-2-(3,6-dihydro-2H-pyran-4-yl)-5-ethyl-7-oxo-4,7-dihydro-[1,2,4]triazolo[1,5-a]pyrimidin-6-yl)piperazin-1-yl)-2-oxoethyl)butyramide] | < 100 nM | < 100 nM
20 | CCc1c(N2CCN(C(=O)CNC(=O)c3ccccn3)CC2)c(=O)n2nc(C3=CCOCC3)nc2n1CC(=O)Nc1ccc(C(F)(F)F)cc1Cl [Example 95, N-(2-(4-(4-(2-((2-Chloro-4-(trifluoromethyl)phenyl)amino)-2-oxoethyl)-2-(3,6-dihydro-2H-pyran-4-yl)-5-ethyl-7-oxo-4,7-dihydro-[1,2,4]triazolo[1,5-a]pyrimidin-6-yl)piperazin-1-yl)-2-oxoethyl)picolinamide] | < 100 nM | < 100 nM

From patent US20260015358A1, “BICYCLIC DERIVATIVES, COMPOSITIONS AND USES THEREOF” (Danatlas Pharmaceuticals Co., Ltd., priority 2023, published 2026)
